In ChEMBL document CHEMBL5385906, “Discovery of a Potent, Selective, and Orally Bioavailable Tool Compound for Probing the Role of Lysophosphatidic Acid Type 2 Receptor Antagonists in Fibrotic Disorders” (J Med Chem, 2023):

Columns and labels:
[1] = molecular target: Lysophosphatidic acid receptor 2 (Homo sapiens, UniProt Q9HBW0)
Description: Antagonist activity at human LPA2 receptor expressed in CHO cells assessed as inhibition of LPA-induced calcium mobilization pretreated for 15 mins followed by LPA stimulation by FLIPR analysis

[2] = molecular target: Lysophosphatidic acid receptor 1 (Homo sapiens, UniProt Q92633)
Chain of Lysophosphatidic acid receptor 1 (Q92633 whole entry): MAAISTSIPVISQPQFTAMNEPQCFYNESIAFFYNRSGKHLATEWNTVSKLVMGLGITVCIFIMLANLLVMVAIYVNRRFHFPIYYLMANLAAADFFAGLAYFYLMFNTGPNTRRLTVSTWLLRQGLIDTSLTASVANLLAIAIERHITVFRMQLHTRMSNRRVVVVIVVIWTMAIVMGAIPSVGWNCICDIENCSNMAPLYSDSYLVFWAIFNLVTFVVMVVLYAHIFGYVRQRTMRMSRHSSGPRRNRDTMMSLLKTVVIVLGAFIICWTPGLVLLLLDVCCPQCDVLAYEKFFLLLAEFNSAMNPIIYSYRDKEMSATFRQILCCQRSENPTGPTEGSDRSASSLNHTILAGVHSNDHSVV
Description: Antagonist activity at human LPA1 receptor expressed in CHO cells assessed as inhibition of LPA-induced calcium mobilization pretreated for 15 mins followed by LPA stimulation by FLIPR analysis

Chain of Lysophosphatidic acid receptor 2 (Q9HBW0 whole entry): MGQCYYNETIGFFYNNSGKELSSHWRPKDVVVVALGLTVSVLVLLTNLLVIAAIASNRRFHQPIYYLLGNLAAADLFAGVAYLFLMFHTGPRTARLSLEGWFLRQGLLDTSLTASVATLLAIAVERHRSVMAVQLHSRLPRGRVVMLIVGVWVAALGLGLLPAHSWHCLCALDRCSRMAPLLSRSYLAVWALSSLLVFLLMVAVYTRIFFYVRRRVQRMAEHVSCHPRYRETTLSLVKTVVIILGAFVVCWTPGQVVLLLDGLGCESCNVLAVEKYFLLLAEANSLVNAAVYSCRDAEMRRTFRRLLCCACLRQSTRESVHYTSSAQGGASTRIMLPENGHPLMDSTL

With `Cc1csc2c(N[C@@H](C)CN3CCN(S(=O)(=O)c4ccc(Cl)c(Cl)c4)CC34CC4)ncnc12` the IC50 [1] was 9.33 µM.

`Cc1csc2c(N[C@@H](C)CN3CCN(S(=O)(=O)c4ccc(Cl)cc4Cl)CC3)ncnc12` gave an IC50 [1] of 3.63 µM.

For `Cc1csc2c(NCC(C)N3CCN(S(=O)(=O)c4ccc(Cl)c(Cl)c4)CC3)ncnc12` (stereo in doubt; 6a), the IC50 [1] was 14.5 µM.

In the case of `Cc1csc2c(N[C@@H](C)CNC3CCC(NS(=O)(=O)c4ccc(Cl)c(Cl)c4)CC3)ncnc12` (some centres not stated), the IC50 [1] is reported as 35.5 µM.

`C[C@@H](CN1CCN(S(=O)(=O)c2ccc(Cl)c(Cl)c2)CC1)Nc1ncnc2cc(C(F)(F)F)ccc12` gave an IC50 [1] of 18.2 µM.

`CC(CN1CCN(S(=O)(=O)c2ccc(Cl)c(Cl)c2)CC1)Nc1ccncn1` (racemic) gave an IC50 [2] of 21.9 µM.

`Cc1csc2c(N[C@@H](C)CN3CC4CC3CN4S(=O)(=O)c3ccc(Cl)c(Cl)c3)ncnc12` (some centres not stated) was tested, and the IC50 [1] was 11.2 µM and the IC50 [2] was 18.2 µM.

In the case of `Cc1csc2c(N3CCC[C@H]3CN3CCN(S(=O)(=O)c4ccc(Cl)c(Cl)c4)CC3)ncnc12`, the IC50 [1] is reported as 30.2 µM.

Work on `COC(=O)Nc1nc(C)c(S(=O)(=O)N2CCN(C[C@H](C)Nc3ncnc4c(C(F)(F)F)cccc34)CC2)s1` yielded an IC50 [1] of 0.0447 µM.

For `C[C@@H](CN1CCN(S(=O)(=O)c2ccc(Cl)c(Cl)c2)CC1)Nc1ncnc2ccn(C)c12`, the IC50 [1] was 8.13 µM.

`C[C@@H](CN1CCN(S(=O)(=O)c2ccc(Cl)c(Cl)c2)CC1)Nc1ncnc2cc[nH]c12` showed an IC50 [1] of 15.8 µM.

Compound `Cc1csc2c(NCC(C)N3CCN(S(=O)(=O)c4ccc(Cl)c(Cl)c4)CC3)ncnc12` (stereo in doubt; 6b) has an IC50 [1] of 6.17 µM.

`Cc1csc2c(N[C@@H](C)CN3CCN(S(=O)(=O)C(=O)c4ccc(Cl)c(Cl)c4)CC3)ncnc12` was tested, and the IC50 [1] was 16.2 µM.

`Cc1cc2ncnc(NC(C)CN3CCN(S(=O)(=O)c4ccc(Cl)c(Cl)c4)CC3)c2s1` (racemic) gave an IC50 [1] of 13.5 µM and an IC50 [2] of 10.5 µM.

With `Cc1ccc(S(=O)(=O)N2CCN(C[C@H](C)Nc3ncnc4c(C)csc34)CC2)cc1C` the IC50 [1] was 2.82 µM.

Compound `CC[C@@H](CN1CCN(S(=O)(=O)c2ccc(Cl)c(Cl)c2)CC1)Nc1ncnc2c(C)csc12` has an IC50 [1] of 6.17 µM.

`Cc1csc2c(N[C@@H](C)CN3CCN(S(=O)(=O)c4ccccc4)CC3)ncnc12` showed an IC50 [1] of 11.2 µM.

With `Cc1cccc2c(NC(C)CN3CCN(S(=O)(=O)c4ccc(Cl)c(Cl)c4)CC3)ncnc12` (stereo in doubt; 42a) the IC50 [1] was > 50.1 µM and the IC50 [2] was > 50.1 µM.

Work on `Cc1csc2c(N[C@@H](C)CNC3CCN(S(=O)(=O)c4ccc(Cl)c(Cl)c4)CC3)ncnc12` yielded an IC50 [1] of 17 µM.

For `Cc1csc2c(NC3(CN4CCN(S(=O)(=O)c5ccc(Cl)c(Cl)c5)CC4)CC3)ncnc12`, the IC50 [1] was 8.32 µM.

In the case of `Cc1csc2c(N[C@@H](C)CN3CCC(NS(=O)(=O)c4ccc(Cl)c(Cl)c4)CC3)ncnc12`, the IC50 [1] is reported as 6.61 µM.

`C[C@@H](CN1CCN(S(=O)(=O)c2ccc(Cl)c(Cl)c2)CC1)Nc1ncnc2cnn(C)c12` showed an IC50 [1] of 17.4 µM.

Work on `Cc1noc(-c2ccc(S(=O)(=O)N3CCN(C[C@H](C)Nc4ncnc5c(C(F)(F)F)cccc45)CC3)s2)c1C` yielded an IC50 [1] of 0.00575 µM.

`CC(CN1CCN(S(=O)(=O)c2ccc(Cl)c(Cl)c2)CC1)Nc1ncnc2c1ncn2C` (racemic) was tested, and the IC50 [1] was 19.1 µM and the IC50 [2] was 20.4 µM.

Compound `CC(=O)Nc1ccc(S(=O)(=O)N2CCN(C[C@H](C)Nc3ncnc4c(C)csc34)CC2)cc1Cl` has an IC50 [1] of 4.07 µM.

`Cc1csc2c(N[C@@H](C)CN3CCN(S(=O)(=O)c4ccc(F)c(Cl)c4)CC3)ncnc12` gave an IC50 [1] of 0.562 µM.

With `Cc1csc2c(N[C@@H](C)CN3CCN(S(=O)(=O)C4CCCCC4)CC3)ncnc12` the IC50 [1] was 25.1 µM.

`Cc1csc2c(N[C@@H](C)C(=O)N3CCN(S(=O)(=O)c4ccc(Cl)c(Cl)c4)CC3)ncnc12` was tested, and the IC50 [2] was > 50.1 µM.

For `Cc1csc2c(NC(C)CN3CCN(S(=O)(=O)c4ccc(Cl)c(Cl)c4)CC3)cccc12` (racemic), the IC50 [1] was > 50.1 µM.

`CC(=O)Nc1ncc(S(=O)(=O)N2CCN(C[C@H](C)Nc3ncnc4c(C)csc34)CC2)s1` gave an IC50 [1] of 4.57 µM.

For `CC(=O)Nc1ccc(S(=O)(=O)N2CCN(C[C@H](C)Nc3ncnc4c(C)csc34)CC2)cn1`, the IC50 [1] was 13.8 µM and the IC50 [2] was > 50.1 µM.

With `Cc1noc(-c2ccc(S(=O)(=O)N3CCN(C[C@H](C)Nc4ncnc5c(C)csc45)CC3)s2)c1C` the IC50 [1] was 0.0437 µM.
